Earlier results on one molecule are cited in patent US20240423897A1, “LONGEVITY SERUM” (Wellbeam Consumer Health Intermediate, LLC, priority 2023, published 2024).

For this series, the system named is skin. Particulars: topical application.

Structures are written as SMILES.

With `C=C[C@@](C)(/C=C/c1ccc(O)cc1)CCC=C(C)C` [bakuchiol], the “effect on lines and wrinkles, pigmentation, elasticity, firmness, and photo-damage” value was “significant improvement”; the “irritating effect on the skin” value is recorded as “no irritating effect”.
